Results reported in patent publication US20220227722A1, “SPHINGOSINE 1 PHOSPHATE RECEPTOR MODULATOR” (RECEPTOS LLC, priority 2019, published 2022).
Like-named read-outs stand apart in the source and are kept apart here.

Experiments:
S1P2R = target: T1, S1P2R (Homo sapiens, UniProt O95136); assay: [35S]GTPγS binding to membranes, S1P2R; format: biochemical
T1 construct: expressed in transfected cells; membranes
Protocol: (§1) S1P1R is a GPCR that couples exclusively to the inhibitory G protein (Gαi), decreasing adenylate cyclase activity and lowering cyclic adenosine monophosphate (cAMP levels) in the cell. The potency of Compound 1 was tested against the S1P1 receptor (S1P1R) and related family members. The potency and S1P receptor selectivity were measured using two independent in vitro assays, [^35S]guanosine-5′-O-(3-thio)triphosphate ([^35S]GTPγS) and β-lactamase gene expression and activity. The GTPγS binding to membranes prepared from stable mammalian cells lines expressing recombinant human S1P receptors 1-5 (S1P1R-S1P5R) was used to pharmacologically characterize ligand interaction with the S1P receptor family members. […] Membrane-bead complexes were then pelleted by centrifugation before the bound radioactivity was quantified with a MicroBeta2® microplate scintillation counter. The radioactive counts relative to DMSO vehicle were calculated and the half maximal effective concentration (EC50) was determined using non-linear regression.

S1P3R [1] = target: T2, S1P3R (Homo sapiens, UniProt Q99500); assay: [35S]GTPγS binding to membranes, S1P3R; format: biochemical
T2 construct: expressed in transfected cells; membranes
T2 sequence (Q99500 whole entry): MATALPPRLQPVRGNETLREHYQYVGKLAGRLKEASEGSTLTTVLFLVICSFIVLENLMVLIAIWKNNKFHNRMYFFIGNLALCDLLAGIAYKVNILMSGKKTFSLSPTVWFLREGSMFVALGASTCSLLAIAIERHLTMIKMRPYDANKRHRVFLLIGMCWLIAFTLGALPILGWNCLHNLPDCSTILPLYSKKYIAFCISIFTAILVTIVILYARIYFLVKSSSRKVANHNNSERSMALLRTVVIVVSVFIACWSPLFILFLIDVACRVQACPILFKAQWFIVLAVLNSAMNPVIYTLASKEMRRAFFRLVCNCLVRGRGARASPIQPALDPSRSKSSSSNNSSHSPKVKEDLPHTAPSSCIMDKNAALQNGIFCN
Protocol: as §1

S1P4R [2] = target: T3, S1P4R (Homo sapiens, UniProt O95977); assay: [35S]GTPγS binding to membranes, S1P4R; format: biochemical
T3 construct: expressed in transfected cells; membranes
T3 sequence (O95977 1-384): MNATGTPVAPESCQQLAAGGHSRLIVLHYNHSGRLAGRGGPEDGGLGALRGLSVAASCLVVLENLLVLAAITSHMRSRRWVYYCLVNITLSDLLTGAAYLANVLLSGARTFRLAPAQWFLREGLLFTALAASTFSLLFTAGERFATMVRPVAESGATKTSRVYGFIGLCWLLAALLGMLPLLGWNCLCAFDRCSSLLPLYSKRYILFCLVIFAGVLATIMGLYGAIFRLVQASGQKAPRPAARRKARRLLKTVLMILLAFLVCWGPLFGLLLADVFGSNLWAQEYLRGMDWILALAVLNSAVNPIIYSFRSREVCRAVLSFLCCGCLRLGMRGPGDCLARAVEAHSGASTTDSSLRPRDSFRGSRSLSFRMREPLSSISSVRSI
Protocol: as §1

S1P5R [3] = target: T4, S1P5R (Homo sapiens, UniProt Q9H228); assay: [35S]GTPγS binding to membranes, S1P5R; format: biochemical
T4 construct: expressed in transfected cells; membranes
T4 sequence (Q9H228 whole entry): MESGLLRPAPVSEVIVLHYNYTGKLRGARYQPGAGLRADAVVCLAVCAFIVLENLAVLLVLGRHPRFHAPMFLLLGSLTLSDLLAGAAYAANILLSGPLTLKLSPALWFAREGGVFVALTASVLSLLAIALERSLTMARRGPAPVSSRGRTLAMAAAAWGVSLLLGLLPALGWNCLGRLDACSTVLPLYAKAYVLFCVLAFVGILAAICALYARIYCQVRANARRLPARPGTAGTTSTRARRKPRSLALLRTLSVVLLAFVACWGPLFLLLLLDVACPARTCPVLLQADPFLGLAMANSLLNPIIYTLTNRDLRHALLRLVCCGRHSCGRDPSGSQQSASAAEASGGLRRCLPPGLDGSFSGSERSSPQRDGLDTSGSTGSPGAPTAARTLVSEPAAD
Protocol: as §1

[4] = Clinical PK, Phase 1 study of ozanimod HCl in relapsing remitting multiple sclerosis subjects; format: in vivo, human; details: for Tmax: read-out: Median Tmax; for % of total agonist exposure at steady state: total agonist = sum of ozanimod and active metabolites, ozanimod HCl PO QD
Source text: Serial blood PK samples were collected on Days 1 and the last day of dosing.

S1P1R [5] = target: T5, S1P1R (Homo sapiens, UniProt P21453); assay: [35S]GTPγS binding to membranes, S1P1R; format: biochemical
T5 construct: expressed in transfected cells; membranes
T5 sequence (P21453 whole entry): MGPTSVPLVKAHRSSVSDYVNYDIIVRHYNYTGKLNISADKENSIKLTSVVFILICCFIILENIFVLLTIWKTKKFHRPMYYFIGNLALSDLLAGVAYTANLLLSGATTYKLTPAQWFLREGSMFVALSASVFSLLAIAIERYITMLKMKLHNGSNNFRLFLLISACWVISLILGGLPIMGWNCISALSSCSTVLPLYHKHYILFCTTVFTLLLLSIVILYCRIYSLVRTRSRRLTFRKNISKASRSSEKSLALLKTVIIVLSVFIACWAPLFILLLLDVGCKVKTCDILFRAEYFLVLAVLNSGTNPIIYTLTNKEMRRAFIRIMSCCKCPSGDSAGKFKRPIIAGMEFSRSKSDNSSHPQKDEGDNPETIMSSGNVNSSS
Protocol: as §1

S1P1R [6] = target: T5, S1P1R; assay: β-lactamase gene expression and activity whole-cell assay, S1P1R; format: cell-based; details: stable cells expressing recombinant human S1P1R
Protocol: (§2) Up-regulation of β-lactamase gene expression and activity were used as a whole-cell functional readout of S1P receptor activation. […] The respective β-lactamase activity was then determined using a fluorescence resonance energy transfer (FRET)-based β-lactamase fluorescent substrate (LiveBLAzer™-FRET B/G Loading Kit CCF4-AM) according to manufacturer's instructions, and incubated with cells for 2 hours at RT. Plates were read using a SpectraMax M5 Multi-Mode microplate reader and the relative response to DMSO vehicle calculated for the EC50 determination using non-linear regression.

S1P3R [7] = target: T2, S1P3R; assay: β-lactamase gene expression and activity whole-cell assay, S1P3R; format: cell-based; details: stable cells expressing recombinant human S1P3R
Protocol: as §2

S1P4R [8] = target: T3, S1P4R; assay: β-lactamase gene expression and activity whole-cell assay, S1P4R; format: cell-based; details: stable cells expressing recombinant human S1P4R
Protocol: as §2

S1P5R [9] = target: T4, S1P5R; assay: β-lactamase gene expression and activity whole-cell assay, S1P5R; format: cell-based
Protocol: as §2

[10] = Compound 1 single dose pharmacokinetics in the rat; format: in vivo; details: Sprague-Dawley, plasma; for AUC(0-t): read-out: AUC0-24; for half-life: read-out: t½ (converted)
Protocol: Plasma samples (50 μL) were aliquoted into a 96 deep-well polypropylene plate (2 mL/well) and 5 μL of dimethyl sulfoxide (DMSO) was added. Samples expected to be above the upper limit of quantitation (ULOQ) were diluted with plasma. Standard curves were prepared by mixing 5 μL of the test compound in DMSO at 10 times the concentration which was added to 50 μL of plasma in a 96 deep-well polypropylene plate. For example, for a 0.3 μM standard, the 10×DMSO concentration of the test compound was 3 μM. Standard curves were prepared using analytical standards of Compound 1. Protein was precipitated from study samples and standards by the addition of 150 μL of acetonitrile. The plate was vortexed to ensure complete precipitation of protein. The precipitated protein was pelleted by centrifugation at 4,000 rpm for 10 min at 20° C. and the clear supernatant was transferred to a clean 96-well plate and centrifuged again under the same conditions to pellet any transferred solid material.
Samples (7 μL) were introduced to a Shimadzu HPLC (LC-20ADXR) with a SIL-30ACMP autosampler (Shimadzu). The mobile phase was a gradient using 0.1% formic acid in water and 0.1% formic acid in acetonitrile. The column used was a Phenomenex Kinetic C18 100 A 2.6μ30×3 mm (PN 946975-906). The CTO-20AC column oven (Shimadzu) was set at 40° C. Prepared samples were usually analyzed in order of lowest to highest concentration for standards and reverse order of time-points for study samples. Study samples were bracketed by full standard curves. Typically at least 6 standards were used for quantitation with a percent accuracy of +/−15% for all standards except at the lower level of quantitation (LLOQ) where a percent accuracy of +/−20% was allowed.
An ABSciex Instruments Triple Quad 5500 Mass Spectrometer (Analyst 1.6.3) was used for detection in the MRM mode. Ionization was achieved by positive or negative electrospray with a source temperature of 600° C. Negative and positive mode analysis was performed in the same injection. Standard samples were usually analyzed in order of lowest to highest concentration. Typically at least six standards were used for quantification with a percent accuracy of +/−15% for all standards except at the LLOQ where a percent accuracy of +/−20% was allowable. Study samples were analyzed in reverse chronological order bracketed with bracketing standard curves.
Blood concentration versus time data are analyzed using non-compartmental methods (WinNonlin version 5.2; model 200 for oral dosing and model 202 for intravenous infusion). Absolute oral bioavailability (%) is calculated using the following expression: (Oral AUC×IV Dose)/(IV AUC×Oral Dose)×100.
Compound 1 was administered in a formulation of 10% volume/volume (v/v) DMSO and 5% v/v Tween 20 in water by IV administration (10 mL/kg) or 0.5% weight/volume (w/v) CMC in water by oral gavage (10 mL/kg). Animals received 0.2 mg/kg as the IV dose or 2 mg/kg/day orally as a single administration. Blood samples were collected at 1, 5, and 30 minutes, 2, 4, 8, 10, 24, […], 48, and 72 hours after IV dosing and 1, 2, 3, 4, 6, 8, 10, 12, 24, 48, and 72 hours following oral dosing. Blood was collected into tubes containing the anti-coagulant K2EDTA and processed to plasma. Plasma concentrations for each analyte were determined using a qualified LC-MS/MS method.

circulating lymphocytes = assay: Assessment of circulating lymphocyte counts after single oral dose; format: in vivo, Sprague Dawley rats; details: rat, 2 mg/kg oral single dose
Protocol: Whole blood samples were collected from acclimated, conscious male Sprague Dawley rats in the fed state using percutaneous jugular vein puncture at pre-dose and 3, 6 and 24 hours after single oral dose administration of vehicle or test compound. Blood samples were collected into K2EDTA tubes, thoroughly mixed and stored on wet ice until analyzed. Circulating lymphocyte counts were assessed by two methods from individual aliquots of the same samples. Total lymphocyte counts were determined in a standard hematology panel on a calibrated analyzer (Test #416; Horiba Medical ABX Pentra XL 80) and by in-house flow cytometry using fluorescent-activated cell sorting (FACS) analysis to determine the number of CD4+, CD8+ and B220+ lymphocytes (ThermoFisher Attune NxT flow cytometer). Data are expressed as follows for absolute lymphocyte counts (hematology analyzer), the individual lymphocyte subtypes (CD4+, CD8+ and B220+) and the sum of the individual lymphocyte subtypes (flow cytometry). • Number of lymphocytes per μL whole blood. • Percentage change relative to each group's pre-dose baseline at each time point
Whole blood samples (K2EDTA) were analyzed on the flow cytometer (ThermoFisher Attune NxT) using rat antibodies, as detailed below. The baseline and 3 hour post-dose samples were analyzed on the same day as collection. The 6 hour post-dose samples were analyzed after overnight storage at 4° C. (on wet ice in a 2-8° C. fridge) and on the same day as the 24 hour post-dose samples were collected and analyzed.
The oral dose level of 2 mg/kg of Compound 1 administered to the animals was intended to induce a significant reduction (˜≥60%) in the number of circulating lymphocyte. Following acclimation, blood samples were serially collected from the jugular vein of conscious Sprague Dawley rats prior to dosing and 3 hours, 6 and 24 hours after administration. The absolute number of circulating lymphocytes was quantified in whole blood samples using a hematology analyzer and the CD4^+, CD8^+ and B220^+ lymphocyte subtypes by flow cytometry. The plasma concentrations for each compound were quantified with liquid chromatography, tandem mass spectrometry.

[11] = Table 4 comparative selectivity, agonist values, read-out: EC50 S1P2
[12] = Table 4 comparative selectivity, agonist values, read-out: EC50 S1P3
[13] = Table 4 comparative selectivity, agonist values, read-out: EC50 S1P4

T1 sequence (O95136 whole entry): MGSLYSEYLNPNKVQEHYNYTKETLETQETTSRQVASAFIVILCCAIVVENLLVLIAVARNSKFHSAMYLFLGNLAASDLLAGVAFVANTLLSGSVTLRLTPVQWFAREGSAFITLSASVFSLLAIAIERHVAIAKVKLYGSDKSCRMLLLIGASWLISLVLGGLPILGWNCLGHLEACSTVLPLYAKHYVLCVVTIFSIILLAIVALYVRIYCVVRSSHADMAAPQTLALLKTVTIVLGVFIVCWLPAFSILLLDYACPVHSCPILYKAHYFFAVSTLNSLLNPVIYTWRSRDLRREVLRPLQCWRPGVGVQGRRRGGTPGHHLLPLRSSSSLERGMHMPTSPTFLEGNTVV

Structure (SMILES): CC(C)Oc1ccc(-c2nc(-c3cccc4c3CC[C@@H]4NCCO)no2)cc1C#N [Ozanimod, reference compound]
- EC50 (S1P2R; [11]): > 10000 nM
- EC50 (S1P3R [1]; [12]): > 5000 nM
- EC50 (S1P4R [2]; [13]): 2040 nM
- EC50 (S1P5R [3]; Table 4 comparative selectivity, agonist values, read-out: EC50 S1P5): 5.1 nM
- half-life ([4]; human, blood, po, 1 mg, read-out: Mean t1/2 (at steady state)): 15 to 23 h
- Tmax ([4]; human, blood, po): 6 to 8 h
- % of total agonist exposure at steady state [4]: Ozanimod: 3% to 6%

Structure (SMILES): CC(C)Oc1ccc(-c2nc(-c3cccc4c3CCC4=O)no2)cc1C#N [Compound 1, 2-isopropoxy-5-(3-(1-oxo-2,3-dihydro-1H-inden-4-yl)-1,2,4-oxadiazol-5-yl)benzonitrile]
- selectivity for S1P1R over S1P2R, S1P3R and S1P4R (S1P1R [5]; [35S]GTPγS binding activity readout): greater than 1000 fold
- EC50 (S1P1R [5]; recombinant human S1P1R membranes): 2.1 nM
- EC50 (S1P2R; [11]): > 10000 nM
- EC50 (S1P2R; recombinant human S1P2R membranes, read-out: EC50 S1P2R GTPγS): > 10000 nM
- EC50 (S1P3R [1]; [12]): > 5000 nM
- EC50 (S1P3R [1]; recombinant human S1P3R membranes, read-out: EC50 S1P3R GTPγS): > 5000 nM
- EC50 (S1P4R [2]; [13]): > 10000 nM
- EC50 (S1P4R [2]; recombinant human S1P4R membranes, read-out: EC50 S1P4R GTPγS): > 10000 nM
- selectivity for S1P5R over S1P2R, S1P3R and S1P4R (S1P5R [3]; GTPγS readout): greater than 200 fold
- EC50 (S1P5R [3]; recombinant human S1P5R membranes, read-out: EC50 S1P5R GTPγS): 17.9 nM
- EC50 (S1P1R [6]): 0.04 nM
- EC50 (S1P3R [7]): > 10000 nM
- EC50 (S1P4R [8]): > 10000 nM
- EC50 (S1P5R [9]; stable cells expressing recombinant human S1P5R): 6.9 nM
- selectivity for S1P5R over S1P2R, S1P3R and S1P4R (S1P5R [9]; β-lactamase readout): greater than 200 fold
- Cmax ([10]; 0.2 mg/kg IV, single dose): 743 nM
- Tmax ([10]; 0.2 mg/kg IV, single dose): 0.02 h
- AUC(0-t) ([10]; 0.2 mg/kg IV, single dose): 0.386 µM·h
- half-life ([10]; 0.2 mg/kg IV, single dose): 1.62 h
- Cmax ([10]; 2.0 mg/kg oral, single dose): 14.8 nM
- Tmax ([10]; 2.0 mg/kg oral, single dose): 3 h
- Vd/F ([10]; 2.0 mg/kg oral, single dose): 292 L/kg
- AUC(0-t) ([10]; 2.0 mg/kg oral, single dose): 0.0954 µM·h
- half-life ([10]; 2.0 mg/kg oral, single dose): 3.73 h
- bioavailability ([10]; 2.0 mg/kg oral vs 0.2 mg/kg IV): 2.5%
- time of maximum effect on lymphocyte counts (circulating lymphocytes): by six hours after administration
- effect on lymphocyte counts at the 24 hour time-point (circulating lymphocytes; 24 hours): without significant effect
- reduction of B220+ lymphocyte population relative to pre-dose (circulating lymphocytes; flow cytometry): 35%
- reduction of CD4+ lymphocyte population relative to pre-dose (circulating lymphocytes; flow cytometry): 68%
- reduction of CD8+ lymphocyte population relative to pre-dose (circulating lymphocytes; flow cytometry): 62%
- reduction of total circulating lymphocyte counts (total number of CD4+, CD8+ and B220+) relative to pre-dose (circulating lymphocytes; flow cytometry): 52%
- fewer lymphocytes relative to pre-dose values (circulating lymphocytes; hematology analyzer): 44%
- Peak-to-trough ratio (at steady state) ([4]; RMS subjects, ozanimod HCl 0.5 or 1 mg PO QD, steady state): 1.3- to 1.6-fold
- Tmax ([4]; human, blood, po): 6 to 10 h
- % of total agonist exposure at steady state [4]: 85% to 93%
